Experimental data from patent US4710580A, “2-[1,3,2-dioxaphospholan-2-yloxy]ethyl compounds” (American Home Products Corporation, priority 1986, dated 1987).

Columns and labels:
human platelet PLA2 = biological target: T1, human platelet PLA2 (Homo sapiens, UniProt P14555); assay: in vitro inhibition of human platelet PLA2 (hydrolysis of [1-14C] oleic acid-labelled E. coli membrane phospholipids); type: biochemical; details: pH 7.4, 30 minutes incubation
T1 construct: The PLA2 enriched supernatant fluid is removed and the amount of protein is determined by the Lowry method; from tissue; host or cells: human platelets (expired, blood bank), acid extract, 10,000 g supernatant
T1 sequence (P14555 21-144): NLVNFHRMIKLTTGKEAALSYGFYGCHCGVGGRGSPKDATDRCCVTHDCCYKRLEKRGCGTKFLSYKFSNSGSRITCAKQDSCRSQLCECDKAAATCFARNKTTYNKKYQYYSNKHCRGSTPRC
Description: The ability of the compounds to inhibit the activity of PLA2 enzyme is measured in the following in vitro assay.
The assay is carried out as follows:
E. coli, cultured to exponential growth, are sedimented for 15 minutes at 10,000 g and resuspended in sterile isotonic saline (1-3 ml). 10-25 μCi [1-^14 C] oleic acid (or arachidonic acid) is added to a sterile flask, evaporated by N2 and resolubilized with 0.3 ml 20% fatty acid-free BSA. 75-100 ml of nutrient broth and 1 ml E. coli are then added to each flask and incubated for 2-3 hours at 37° C. [1-^14 C] oleic acid labelled E. coli are then sedimented, suspended in saline and added to fresh nutrient broth and incubated for 1.5 hours at 37° C. to complete [1-^14 C] oleic acid incorporation into the phospholipids. After overnight refrigeration of cultures, E. coli are again sedimented, suspended in saline and autoclaved for 15 minutes at 120° C. E. coli cultures are washed twice with saline (first wash contains 1% BSA) and resuspended in saline. […] Cell number is determined by measuring the optical density at 550 nm ([…]=1 O.D.). The amount of radioactivity associated with cells is determined by counting a defined volume of cell suspension. […]
Expired human platelets from the blood bank are centrifuged for 15 minutes at 200 g to obtain a platelet rich plasma fraction and to remove the red blood cells. […] The PLA2 enriched supernatant fluid is removed and the amount of protein is determined by the Lowry method. […]
The assay measures the hydrolysis of E. coli membrane phospholipids and the release of free [1-^14 C] oleic acid from the C-2 position of phospholipids by human platelet PLA2. […] Free fatty acid ([1-^14 C] oleic acid labeled phospholipids are visualized with exposure to iodine vapors. Radioactive areas that co-chromatographed with authentic oleic acid and phospholipid standards are cut out and placed in a scintillation vial. One ml CH3 OH and 10 ml Hydrofluor are added to each cut strip and radioactivity is determined by liquid scintillation counting.
The percent hydrolysis is calculated by the following equation: [formula]

[1] = tested on: lipoxygenase and/or cyclooxygenase pathways of arachidonic acid; assay: 12-O-tetradecanoylphorbol acetate (TPA)-induced murine ear edema test; type: in vivo, Swiss Webster female mice; details: 1 mg/ear, drug 30 minutes after TPA (4 μg/ear), ear thickness measured after 4 hours
From the text: (§1) The ability of the compounds of the invention to inhibit the lipoxygenase and/or cyclooxygenase pathways of arachidonic acid is examined in the in vivo arachidonic acid (AA)-/12-O-tetradecanoylphorbol acetate (TPA)-induced murine ear edema test.
(§2) According to this test, Swiss Webster female mice (Buckshire), approximately 8 weeks old, are placed into plastic boxes in groups of six. Eight groups of mice receive AA topically on the right ear, and another 8 groups receive TPA topically on the right ear. AA and TPA are dissolved in acetone at concentrations of 100 mg/ml ad 100 μg/ml respectively. The phlogistics are applied to the right ear by the means of an automatic pipet. Volumes of 10 μl are applied to the inner and outer surfaces of the ear. Each mouse receives either 2 mg/ear AA or […] TPA. The left ear (control) receives acetone delivered in the same manner. […]
(§3) Measurements are taken with Oditest calipers, 0-10 mm with 0.01 graduations. The right and left ears are measured after 1 hour AA-induced inflammation and 4 hours after TPA-induced inflammation.
(§4) The difference between right and left ear thickness is calculated and the significance is determined by a one way analysis of variance with Dunnett's comparisons to control (P=0.05). Drug effects are expressed as a percent change from control values: [formula]

[2] = tested on: lipoxygenase and/or cyclooxygenase pathways of arachidonic acid; assay: arachidonic acid (AA)-induced murine ear edema test; type: in vivo, Swiss Webster female mice; details: 1 mg/ear, drug 30 minutes prior to AA (2 mg/ear), ear thickness measured after 1 hour
From the text: as §1, §2, §3, §4

inhibition at 100 µM (human platelet PLA2) [%]	Compound	% Change from Control, TOPICAL, TPA [1] [%]	% Change from Control, TOPICAL, AA [2] [%]
32	CCCCCCCCCCCCNC(=O)NCCOP1(=O)OCCO1 [Example 1, N-[2-(1,3,2-Dioxaphospholan-2-yloxy)ethyl]-N'-dodecylurea P-oxide]		
28	CCCCCCCCCCCCCCCCS(=O)(=O)NCCOP1(=O)OCCO1 [Example 3, N-[2-(1,3,2-dioxaphospholan-2-yloxy)ethyl]-1-hexadecanesulfonamide P-oxide]		
92	CCCCCCCCCCCCNC(=O)OCCOP1(=O)OCCO1 [Example 2, Dodecylcarbamic acid 2-(1,3,2-dioxaphospholan-2-yloxy)ethyl ester P-oxide]	-38	-16
